The source of these data is US5571942A, “Ring-substituted 2-amino-1,2,3,4-tetrahydronaphthalenes and 3-aminochromanes” (Eli Lilly and Company, priority 1995, dated 1996).

A value given as a limit tells only on which side of the number the result lay.

By IC50 is commonly meant the concentration needed to halve the response being measured. A low value points to greater potency.

Common to all, as to parameters: species or system rat (male Sprague-Dawley)
Experiment [1] concerns the target T1, 5-HT1A receptors (Rattus norvegicus, UniProt P19327).
T1 construct: from tissue; host or cells: cerebral cortex (crude synaptosomal membranes) of male Sprague-Dawley rats
T1 sequence (P19327 1-422): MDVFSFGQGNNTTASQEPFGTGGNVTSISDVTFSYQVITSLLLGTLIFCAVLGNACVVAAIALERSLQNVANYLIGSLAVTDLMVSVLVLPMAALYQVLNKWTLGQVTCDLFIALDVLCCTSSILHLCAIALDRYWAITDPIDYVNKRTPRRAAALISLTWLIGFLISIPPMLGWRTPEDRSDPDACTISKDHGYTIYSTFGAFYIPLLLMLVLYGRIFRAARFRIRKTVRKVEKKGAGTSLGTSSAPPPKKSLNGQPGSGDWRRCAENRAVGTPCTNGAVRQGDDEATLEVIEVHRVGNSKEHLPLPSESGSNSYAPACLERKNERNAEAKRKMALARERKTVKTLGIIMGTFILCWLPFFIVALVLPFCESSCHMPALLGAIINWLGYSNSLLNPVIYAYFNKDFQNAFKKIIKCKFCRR
Briefly: in vivo lowering of brain 5-HIAA levels (5-HT1A agonist activity). The following applies: one hour after treatment. As to the method: (§1) Compounds of this invention were also examined for their in vivo effects on brain 5-HIAA and serum corticosterone levels. Male Sprague-Dawley rats weighting 150-200 g were administered subcutaneously or orally with aqueous solutions of the test compound. One hour after treatment, the rats were decapitated and trunk blood collected. The blood was allowed to clot and then was centrifuged to separate the serum. The concentration of corticosterone in the serum was determined by the spectrofluorometric method of Solem, J. H.; Brinck-Johnsen, T., Scand. J. Clin. Invest. [Suppl. 80], 17, 1 (1965). The whole brains from the decapitated rats were quickly removed, frozen on dry ice, and stored at -15° C. 5-HIAA concentrations were measured by liquid chromatography with electrochemical detection as described by Fuller, R. W.; Snoddy, H. D.; Perry, K. W., Life Sci. 40, 1921 (1987).
(§2) The results provided in columns 3-5 are indicative of 5-HT1A agonist activity.

In experiment [2] the target is T1, 5-HT1A receptors. As to the kind of experiment: in vivo elevation of serum corticosterone levels (5-HT1A agonist activity). The following applies: sc, one hour after treatment. Here is the method:
as §1, §2

The target of experiment [3] is T1, 5-HT1A receptors. As to the kind of experiment: in vitro binding: inhibition of 3H-8-OH-DPAT binding to synaptosomal membranes from rat cerebral cortex. Particulars: 3H-8-OH-DPAT 2 nM, 37° C., 10 min, pH 7.4.
From the text: Sites specifically labeled by tritiated 8-hydroxy-2-dipropylamino-1,2,3,4-tetrahydronaphthalene (^3 H-8-OH-DPAT) have been identified as 5-HT1A receptors. This general procedure is set forth in Wong et al., J. Neural Transm. 71:207-218 (1988).
Male Sprague-Dawley rats (110-150 g) from Harlan Industries (Cumberland, Ind.) were fed a Purina Chow ad libitum for at least 3 days before being used in the studies. Rats were killed by decapitation. The brains were rapidly removed, and the cerebral cortices were dissected out at 4° C.
Brain tissues were homogenized in 0.32M sucrose. After centrifugation at 1000×g for 10 min and then at 17000×g for 20 min, a crude synaptosomal fraction was sedimented. The pellet was suspended in 100 vol of 50 mM Tris-HCl, pH 7.4, incubated at 37° C. for 10 min, and centrifuged at 50000×g for 10 min. The process was repeated and the final pellet was suspended in ice-chilled 50 mM Tris-HCl, pH 7.4.
Binding of ^3 H-8-OH-DPAT was performed according to the previously described method [Wong et al., J. Neural Transm. 64:251-269 (1985)]. Briefly, synaptosomal membranes isolated from cerebral cortex were incubated at 37° C. for 10 min. in 2 ml of 50 mM Tris-HCl, pH 7.4; 10 mM pargyline; 0.6 mM ascorbic acid; 5 mM CaCl2; 2 nM ^3 H-8-OH-DPAT and 0.1 to 1000 nm of the compound of interest. Binding was terminated by filtering samples under reduced pressure through glass fiber (GFB) filters. The filters were washed twice with 5 ml of ice cold buffer and placed in scintillation vials with 10 ml of PCS (Amersham/Searle) scintillation fluid. Radioactivity was measured with a liquid scintillation spectrometer. Unlabeled 8-OH-DPAT at 10 μM was also included in separate samples to establish non-specific binding. Specific binding of ^3 H-8-OH-DPAT is defined as the difference of radioactivity bound in the absence and in the presence of 10 μM unlabeled 8-OH-DPAT.
as §2

On to `CCCN(CCC)C1CCc2cccc(-c3ccncc3)c2C1` (stereo not shown) [Example 16, 2-Di-n-propylamino-8-(pyrid-4-yl)-1,2,3,4-tetrahydronaphthalene], for which the “5-HIAA MED (minimum effective dose lowering brain 5-HIAA levels)” value in experiment [1] (sc) is recorded as greater than 1.0 mg/kg. Besides, the “Corticosterone MED (minimum effective dose elevating serum corticosterone levels)” value (“Corticosterone MED” for short) in experiment [2] is greater than 1.0 mg/kg. Also, the IC50 in experiment [3] is 9.8 nM.
The compound `CCCN(CCC)C1CCc2cccc(-c3ccccn3)c2C1` (stereo not shown) [Example 15, 2 -Di-n-propylamino-8-(pyrid-2-yl)-1,2,3,4-tetrahydronaphthalene] had an IC50 in experiment [3] of 33 nM.
Still for that read-out and setting: to `CCCN(CCC)C1CCc2cccc(-c3nc(-c4ccccc4)no3)c2C1` (stereo not shown) [Example 34, 2-Di-n-propylamino-8-(3-phenyl-1,2,4-oxadiazol-5-yl)-1,2,3,4-tetrahydronaphthalene] belongs 11 nM.
In turn, `CCCN(CCC)C1CCc2cccc(-c3cnc4ccccc4c3)c2C1` (stereo not shown) [Example 13, 2-Di-n-propylamino-8-(quinol-3-yl)-1,2,3,4-tetrahydronaphthalene] displayed a half-maximal inhibitory concentration (IC50) in experiment [3] of 16 nM.
As to `CCCN(CCC)C1CCc2cccc(-c3oncc3OC)c2C1` (stereo not shown) [Example 31, 2-Di-n-propylamino-8-(4-methoxyisoxazol-5-yl)-1,2,3,4-tetrahydronaphthalene], the “5-HIAA MED (minimum effective dose lowering brain 5-HIAA levels)” value in experiment [1] (sc) is given as 1.0 mg/kg. Moreover, the “Corticosterone MED” value in experiment [2] was greater than 1.0 mg/kg.
Turning to `CCCN(CCC)C1CCc2cccc(-c3noc4ccccc34)c2C1` (stereo not shown) [Example 17, 2-Di-n-propylamino-8-(indoxazin-3-yl)-1,2,3,4-tetrahydronaphthalene], the “5-HIAA MED (minimum effective dose lowering brain 5-HIAA levels)” value in experiment [1] (sc) is on record as greater than 1.0 mg/kg. Moreover, in experiment [2], the “Corticosterone MED” value was greater than 1.0 mg/kg. In experiment [3], this compound gave a half-inhibitory concentration (IC50) of 5 nM.
`CCCN(CCC)C1CCc2cccc(-c3ccno3)c2C1` (stereo not shown) [Example 8, 2-Di-n-propylamino-8-(isoxazol-5-yl)-1,2,3,4-tetrahydronaphthalene]: the “5-HIAA MED (minimum effective dose lowering brain 5-HIAA levels)” value in experiment [1] (po) is reported as 3 mg/kg; in experiment [1] (sc), 0.1 mg/kg. In addition, the “Corticosterone MED” value in experiment [2] amounted to 0.3 mg/kg.
For the compound `CCCN(CCC)C1CCc2cccc(-c3ccnc(N)n3)c2C1` (stereo not shown) [Example 32, 2-Di-n-propylamino-8-(2-aminopyrimidin-4-yl)-1,2,3,4-tetrahydronaphthalene], in experiment [3], the IC50 was determined as 67 nM.
With `CCCN(CCC)C1CCc2cccc(-c3ccnn3C)c2C1` (stereo not shown) [5 (5-yl), 2-Di-n-propylamino-8-(1-methylpyrazol-5-yl)-1,2,3,4-tetrahydronaphthalene], the 50% inhibitory concentration (IC50) in experiment [3] stood at 7.2 nM.
On to `CCCN(CCC)C1CCc2cccc(-c3csc(N)n3)c2C1` (stereo not shown) [Example 10, 2-Di-n-propylamino-8-(2-aminothiazol-4-yl)-1,2,3,4-tetrahydronaphthalene], for which the half-maximal inhibitory concentration (IC50) in experiment [3] is 19 nM.
Still for that read-out and setting: the result for `CCCN(CCC)C1CCc2cccc(-c3nc(C)no3)c2C1` (stereo not shown) [Example 35, 2-Di-n-propylamino-8-(3-methyl-1,2,4-oxidiazol-5-yl)-1,2,3,4-tetrahydronaphthalene] reads 16 nM.
`CCCN(CCC)C1CCc2cccc(-c3cc[nH]n3)c2C1` (stereo not shown) [Example 33, 2-Di-n-propylamino-8-(pyrazol-3-yl)-1,2,3,4-tetrahydronaphthalene]: the “5-HIAA MED (minimum effective dose lowering brain 5-HIAA levels)” value in experiment [1] (sc) is reported as greater than 1.0 mg/kg. Besides, the “Corticosterone MED” value in experiment [2] is on record as greater than 1.0 mg/kg. This compound also returned an IC50 in experiment [3] of 4.9 nM.
On to `CCCN(CCC)C1CCc2cccc(-c3cc(SC)no3)c2C1` (stereo not shown) [Example 30, 2-Di-n-propylamino-8-(3-methylthioisoxazol-5-yl)-1,2,3,4-tetrahydronaphthalene], for which the “5-HIAA MED (minimum effective dose lowering brain 5-HIAA levels)” value in experiment [1] (sc) is listed as greater than 1.0 mg/kg. The “Corticosterone MED” value in experiment [2] is on record as greater than 1.0 mg/kg.
Turning to `CCCN(CCC)C1CCc2cccc(-c3noc(-c4ccccc4)n3)c2C1` (stereo not shown) [Example 2, 2-Di-n-propylamine-8-(5-phenyl-1,2,4-oxadiazol-3-yl)-1,2,3,4-tetrahydronaphthalene], the IC50 in experiment [3] stood at 36 nM.
`CCCN(CCC)C1CCc2cccc(-c3cscn3)c2C1` (stereo not shown) [Example 11, 2-Di-n-propylamino-8-(thiazol-4-yl)-1,2,3,4-tetrahydronaphthalene]: in experiment [1] (sc), the “5-HIAA MED (minimum effective dose lowering brain 5-HIAA levels)” value is greater than 1.0 mg/kg. For the same compound, the “Corticosterone MED” value in experiment [2] is recorded as greater than 1.0 mg/kg. Besides, in experiment [3], the IC50 turned out to be 4.9 nM.
Consider `CCCN(CCC)C1CCc2cccc(-c3cc(C)no3)c2C1` (stereo not shown) [Example 23, 2-Di-n-propylamino-8-(3-methylisoxazol-5-yl)-1,2,3,4-tetrahydronaphthalene], for which the “5-HIAA MED (minimum effective dose lowering brain 5-HIAA levels)” value in experiment [1] (sc) was determined as 1.0 mg/kg. The “Corticosterone MED” value in experiment [2] is greater than 1.0 mg/kg.
Regarding `CCCN(CCC)C1CCc2cccc(-c3ccon3)c2C1` (stereo not shown) [Example 25], the entries for the “5-HIAA MED (minimum effective dose lowering brain 5-HIAA levels)” value in experiment [1] (po) and in experiment [1] (sc) were 10 mg/kg and 0.3 mg/kg, respectively. The “Corticosterone MED” value in experiment [2] was 0.3 mg/kg. For the same compound, in experiment [3], the 50% inhibitory concentration (IC50) is 1.4 nM.
For the compound `CCCN(CCC)C1CCc2cccc(-c3nccs3)c2C1` (stereo not shown) [Example 9, 2-Di-n-propylamino-8-(thiazol-2-yl)-1,2,3,4-tetrahydronaphthalene], the “5-HIAA MED (minimum effective dose lowering brain 5-HIAA levels)” value in experiment [1] (sc) is reported as greater than 1.0 mg/kg. Moreover, the “Corticosterone MED” value in experiment [2] is greater than 1.0 mg/kg. Also, the IC50 in experiment [3] was found to be 12 nM.
In experiment [3], `CCCN(CCC)C1CCc2cccc(-c3ccc4ccccc4n3)c2C1` (stereo not shown) [Example 12, 2-Di-n-propylamino-8-(quinol-2-yl)-1,2,3,4-tetrahydronaphthalene] had an IC50 of 87 nM.
In the case of `CCCN(CCC)C1CCc2cccc(-c3ccn(C)n3)c2C1` (stereo not shown) [5 (3-yl), 2-Di-n-propylamino-8-(1-methylpyrazol-3-yl)-1,2,3,4-tetrahydronaphthalene], the “5-HIAA MED (minimum effective dose lowering brain 5-HIAA levels)” value in experiment [1] (sc) was greater than 1.0 mg/kg. For the same compound, in experiment [2], the “Corticosterone MED” value is 1.0 mg/kg. Moreover, the IC50 in experiment [3] turned out to be 5 nM.
Regarding `CCCN(CCC)C1CCc2cccc(-c3cc(O)[nH]n3)c2C1` (stereo not shown) [Example 6, 2-Di-n-propylamino-8-(5-hydroxypyrazol-3-yl)-1,2,3,4-tetrahydronaphthalene], in experiment [3], the IC50 came to 62 nM.
For the compound `CCCN(CCC)C1CCc2cccc(-c3cc(Br)no3)c2C1` (stereo not shown) [Example 20, 2-Di-n-propylamino-8-(3-bromoisoxazol-5-yl)-1,2,3,4-tetrahydronaphthalene], in experiment [1] (sc), the “5-HIAA MED (minimum effective dose lowering brain 5-HIAA levels)” value is reported as greater than 1.0 mg/kg. The “Corticosterone MED” value in experiment [2] is greater than 1.0 mg/kg.
Regarding `CCCN(CCC)C1CCc2cccc(-c3oncc3C)c2C1` (stereo not shown) [Example 21, 2-Di-n-propylamino-8-(4-methylisoxazol-5-yl)-1,2,3,4-tetrahydronaphthalene], the “5-HIAA MED (minimum effective dose lowering brain 5-HIAA levels)” value is greater than 10 mg/kg in experiment [1] (po) and 0.3 mg/kg in experiment [1] (sc). Further, in experiment [2], the “Corticosterone MED” value came to 1.0 mg/kg.
